Assay results reported in patent US20090041897A1, “Transparent, concentrated liquid nutritional supplement composition” (priority 2007, published 2009).

Columns and labels:
[1] = general statement in the description; cited from earlier work
[2] = solubility, turbidity and stability of ingredients in water; format: physicochemical; conditions: minerals considered for the concentrate
Experimental: Each ingredient or nutrient is evaluated at suitable concentration (based on actual usage level) in 100 ml deionized water enclosed in glass bottle and checked for turbidity. Only non turbidity producing materials (estimated at 25 NTU or less) were selected. Visual evaluation also conducted to ensure clear liquids are obtained. Solutions with an estimated 30 NTG and above are eliminated as potential ingredients. Bottles were also checked for precipitated solids at 0, 2, 4, 6, 8, 10 and 24 hours at room temperature. If precipitate is observed, the ingredient/nutrient is rendered unusable for producing appealing liquid nutritional supplement. Furthermore, ingredients are evaluated in a final diluted liquid nutritional supplement and/or diluents to ensure that dilution will not change the physical appearance of concentrates. […] Insoluble materials are excluded from the formulation. Saturation point is also observed for each ingredient/nutrient to ensure that no precipitation will occur. […] Each ingredient or nutrient is evaluated at suitable concentration (based on actual usage level) in 100 ml deionized water enclosed in glass bottle and checked turbidity. […] Furthermore, ingredients are evaluated in a final diluted liquid nutritional supplement to ensure that dilution will not change the physical appearance of concentrates. […]

| Compound | solubility in water [1] | other results |
| --- | --- | --- |
| Gelatin | soluble only in hot water | – |
| O=C1O[C@H]([C@@H](O)CO)C(O)=C1O [Vitamin C, Ascorbic Acid] | – | stability in water [1]: degrades in water in fast fashion |
| [Mg+2] [magnesium] | – | effect on clarity of concentrate and finished liquid nutritional supplement [2]: induce cloudiness and turbidity; solubility [2]: not soluble |
| Hydrolyzed Collagen | readily water soluble | – |
| CS(C)(=O)=O [MSM, Methyl-Sulfonyl-Methane] | readily water soluble | – |
| Chondroitin sulfate | soluble in water | – |
| N[C@H]1C(O)O[C@H](CO)[C@@H](O)[C@@H]1O (some centres unmarked) [Glucosamine] | water-soluble | – |
